Marks after values point to notes of the source that are not given here.
Test: logP determination by retention times (calibration with alkan-2-ones)
Conditions: not given

Row | SMILES | chromatographic logP
1 | COc1cc(Nc2nccc(-c3sc(NCC4CCCO4)nc3C)n2)cc(OC)c1OC (centres unmarked) [Example 354, 4-{4-methyl-2-[(tetrahydrofuran-2-ylmethyl)amino]-1,3-thiazol-5-yl}-N-(3,4,5-trimethoxyphenyl)pyrimidine-2-amine] | 1.8
2 | COCC(C)Nc1nc(C)c(-c2ccnc(Nc3cccc(O)c3)n2)s1 (centres unmarked) [Example 129, 3-[(4-{2-[(2-methoxy-1-methylethyl)amino]-4-methyl-1,3-thiazol-5-yl}pyrimidin-2-yl)amino]phenol] | 1.53
3 | Cc1nc(C2CCCCC2)sc1-c1ccnc(Nc2cccc(C(=O)O)c2)n1 [Example 145, 3-{[4-(2-cyclohexyl-4-methyl-1,3-thiazol-5-yl)pyrimidin-2-yl]amino}benzoic acid] | 3.27
4 | Cc1nc(N(C)c2ccccc2)sc1-c1ccnc(Nc2ccccc2)n1 [Example 357, 4-{4-methyl-2-[methyl(phenyl)amino]-1,3-thiazol-5-yl}-N-phenylpyrimidine-2-amine] | 3.21
5 | COCc1nc(C)c(-c2ccnc(Nc3cc(OC)c(OC)c(OC)c3)n2)s1 [Example 295, 4-[2-(methoxymethyl)-4-methyl-1,3-thiazol-5-yl]-N-(3,4,5-trimethoxyphenyl)pyrimidine-2-amine] | 2.36
6 | COCc1nc(C)c(-c2ccnc(Nc3ccccc3)n2)s1 [Example 301, 4-[2-(methoxymethyl)-4-methyl-1,3-thiazol-5-yl]-N-phenylpyrimidine-2-amine] | 3.01
7 | COc1ccc(Nc2nccc(-c3sc(SC)nc3C)n2)cc1OC [Example 405, N-(3,4-dimethoxyphenyl)-4-[4-methyl-2-(methylthio)-1,3-thiazol-5-yl]pyrimidine-2-amine] | 2.78
8 | COc1ccc(Nc2nccc(-c3sc(N)nc3C)n2)cc1OC [Example 202, 4-(2-amino-4-methyl-1,3-thiazol-5-yl)-N-(3,4-dimethoxyphenyl)pyrimidine-2-amine] | 1.28
9 | COCC(C)Nc1nc(C)c(-c2ccnc(Nc3ccc(O)cc3)n2)s1 (centres unmarked) [Example 284, 4-[(4-{2-[(2-methoxy-1-methylethyl)amino]-4-methyl-1,3-thiazol-5-yl}pyrimidin-2-yl)amino]phenol] | 1.4
10 | Cc1nc(N(C)C2CC2)sc1-c1ccnc(Nc2ccccc2)n1 [Example 341, 4-{2-[cyclopropyl(methyl)amino]-4-methyl-1,3-thiazol-5-yl}-N-phenylpyrimidine-2-amine] | 2.43

Same assay, conditions: * HPLC reversed-phase C18, 40° C., mobile phase 0.1% aqueous formic acid and acetonitrile, linear gradient 10% to 95% acetonitrile

Row | SMILES | logP
11 | CN(C)c1nc(C(F)(F)F)c(-c2ccnc(Nc3cccc(N4CCCC4=O)c3)n2)s1 [Example 775, 1-[3-({4-[2-(dimethylamine)-4-(trifluoromethyl)-1,3-thiazol-5-yl]pyrimidin-2-yl}amino)phenyl]pyrrolidin-2-one] | 3.07*

Same assay, conditions: HPLC, reversed-phase C 18, EEC Directive 79/831 Annex V.A8; method *: 40° C., 0.1% aqueous formic acid and acetonitrile, linear gradient 10% to 95% acetonitrile

Row | SMILES | logP
12 | Cc1nc(NC(C)(C)C)sc1-c1ccnc(Nc2cccc(O)c2)n1 [Example 102, 3-({4-[2-(tert-butylamine)-4-methyl-1,3-thiazol-5-yl]pyrimidin-2-yl}amino)phenol] | 1.82*

Same assay, conditions: logP, * HPLC reversed-phase C18, 40° C., mobile phase 0.1% aqueous formic acid and acetonitrile, linear gradient 10% to 95% acetonitrile

Row | SMILES | chromatographic logP
13 | COc1cc(Nc2nccc(-c3sc(-c4cccnc4)nc3C)n2)cc(OC)c1OC [Example 713, 4-(4-methyl-2-pyridin-3-yl-1,3-thiazol-5-yl)-N-(3,4,5-trimethoxyphenyl)pyrimidine-2-amine] | 2.56
14 | COCC(C)Nc1nc(C)c(-c2ccnc(Nc3cccc(Cl)c3)n2)s1 (centres unmarked) [Example 437, N-(3-chlorophenyl)-4-{2-[(2-methoxy-1-methylethyl)amino]-4-methyl-1,3-thiazol-5-yl}pyrimidine-2-amine] | 2.47
15 | Cc1nc(C)c(-c2ccnc(Nc3ccc4c(c3)OCO4)n2)s1 [Example 616, N-1,3-benzodioxol-5-yl-4-(2,4-dimethyl-1,3-thiazol-5-yl)pyrimidine-2-amine] | 2.44
16 | COCCNc1nc(C)c(-c2ccnc(Nc3cc(OC)c(OC)c(OC)c3)n2)s1 [Example 679, 4-{2-[(2-methoxyethyl)amino]-4-methyl-1,3-thiazol-5-yl}-N-(3,4,5-trimethoxyphenyl)pyrimidine-2-amine] | 1.74
17 | CCCc1nc(C)c(-c2ccnc(Nc3cc(OC)c(OC)c(OC)c3)n2)s1 [Example 768, 4-(4-methyl-2-propyl-1,3-thiazol-5-yl)-N-(3,4,5-trimethoxyphenyl)pyrimidine-2-amine] | 2.93
18 | COc1cccc(Nc2nccc(-c3sc(NCC4CCCO4)nc3C)n2)c1 (centres unmarked) [Example 451, N-(3-methoxyphenyl)-4-{4-methyl-2-[(tetrahydrofuran-2-ylmethyl)amino]-1,3-thiazol-5-yl}pyrimidine-2-amine] | 1.94
19 | COCCNc1nc(C)c(-c2ccnc(Nc3ccc(C#N)cc3)n2)s1 [Example 807, 4-[(4-{2-[(2-methoxyethyl)amino]-4-methyl-1,3-thiazol-5-yl}pyrimidin-2-yl)amino]benzonitrile] | 1.9
20 | COCCCNc1nc(C)c(-c2ccnc(Nc3cccc(C(C)=O)c3)n2)s1 [Example 738, 1-{3-[(4-{2-[(3-methoxypropyl)amino]-4-methyl-1,3-thiazol-5-yl}pyrimidin-2-yl)amino]phenyl}ethanone] | 1.75
21 | CCc1nc(C)c(-c2ccnc(Nc3ccc(CNC(=O)OC(C)(C)C)cc3)n2)s1 [Example 632, tert-butyl-(4-{[4-(2-ethyl-4-methyl-1,3-thiazol-5-yl)pyrimidin-2-yl]amino}benzyl)carbamate] | 3.26
22 | COCCCOC(=O)c1ccc(Nc2nccc(-c3sc(COC)nc3C)n2)cc1 [Example 765, 3-methoxypropyl-4-({4-[2-(methoxymethyl)-4-methyl-1,3-thiazol-5-yl]pyrimidin-2-yl}amino)benzoate] | 2.63
23 | COc1ccc(Nc2nccc(-c3sc(NCC4CCCO4)nc3C)n2)cn1 (centres unmarked) [Example 523, N-(6-methoxypyridin-3-yl)-4-{4-methyl-2-[(tetrahydrofuran-2-ylmethyl)amino]-1,3-thiazol-5-yl}pyrimidine-2-amine] | 1.57
24 | CCCc1nc(C)c(-c2ccnc(Nc3cccc(C(C)=O)c3)n2)s1 [Example 767, 1-(3-{[4-(4-methyl-2-propyl-1,3-thiazol-5-yl)pyrimidin-2-yl]amino}phenyl)ethanone] | 3.04
25 | CCc1nc(C)c(-c2ccnc(Nc3ccc(C(=O)NCCOC)cc3)n2)s1 [Example 711, 4-{[4-(2-ethyl-4-methyl-1,3-thiazol-5-yl)pyrimidin-2-yl]amino}-N-(2-methoxyethyl)benzamide] | 2.09
26 | COCc1nc(C)c(-c2ccnc(Nc3ccc(NC(C)=O)cc3)n2)s1 [Example 544, N-[4-({4-[2-(methoxymethyl)-4-methyl-1,3-thiazol-5-yl]pyrimidin-2-yl}amino)phenyl]acetamide] | 1.8
27 | Cc1nc(C)c(-c2ccnc(Nc3cccnc3)n2)s1 [Example 716, 4-(2,4-dimethyl-1,3-thiazol-5-yl)-N-pyridin-3-ylpyrimidine-2-amine] | 0.98
28 | COCC(C)Nc1nc(C)c(-c2ccnc(Nc3ccc(F)c(C)c3)n2)s1 (centres unmarked) [Example 482, N-(4-fluoro-3-methylphenyl)-4-{2-[(2-methoxy-1-methylethyl)amino]-4-methyl-1,3-thiazol-5-yl}pyrimidine-2-amine] | 2.19
29 | Cc1nc(NCC2CCCO2)sc1-c1ccnc(Nc2ccc(F)cc2)n1 (centres unmarked) [Example 489, N-(4-fluorophenyl)-4-{4-methyl-2-[(tetrahydrofuran-2-ylmethyl)amino]-1,3-thiazol-5-yl}pyrimidine-2-amine] | 2.1

Same assay, conditions: logP, values marked *: HPLC on reversed-phase C 18, 40° C., mobile phase 0.1% aqueous formic acid and acetonitrile, linear gradient 10% to 95% acetonitrile

Row | SMILES | chromatographic logP
30 | COCCOc1nc(C)c(-c2ccnc(Nc3ccccc3)n2)s1 [Example 901, 4-[2-(2-methoxyethoxy)-4-methyl-1,3-thiazol-5-yl]-N-phenylpyrimidine-2-amine] | 3.01
31 | CCc1nc(C)c(-c2nc(Nc3ccccc3)ncc2Cl)s1 [Example 876, 5-chloro-4-(2-ethyl-4-methyl-1,3-thiazol-5-yl)-N-phenylpyrimidine-2-amine] | 3.78
32 | Cc1nc(C)c(-c2nc(Nc3cccc(Cl)c3)ncc2Cl)s1 [Example 875, 5-chloro-N-(3-chlorophenyl)-4-(2,4-dimethyl-1,3-thiazol-5-yl)pyrimidine-2-amine] | 3.86
33 | CCc1nc(C)c(-c2nc(Nc3ccccc3)ncc2Br)s1 [Example 902, 5-bromo-4-(2-ethyl-4-methyl-1,3-thiazol-5-yl)-N-phenylpyrimidine-2-amine] | 3.82
34 | CC(=O)c1ccc(Nc2nccc(-c3sc(C(C)C)nc3C)n2)cc1 [Example 820, 1-(4-{[4-(2-isopropyl-4-methyl-1,3-thiazol-5-yl)pyrimidin-2-yl]amino}phenyl)ethanone] | 3.06
35 | CC(=O)c1cccc(Nc2nccc(-c3sc(C(C)(C)C)nc3C)n2)c1 [Example 887, 1-(3-{[4-(2-tert-butyl-4-methyl-1,3-thiazol-5-yl)pyrimidin-2-yl]amino}phenyl)ethanone] | 3.66
36 | Cc1ccc(Nc2nccc(-c3sc(NCC4CCCO4)nc3C)n2)cc1[N+](=O)[O-] (centres unmarked) [Example 810, N-(4-methyl-3-nitrophenyl)-4-{4-methyl-2-[(tetrahydrofuran-2-ylmethyl)amino]-1,3-thiazol-5-yl}pyrimidine-2-amine] | 2.33
37 | COCCOc1nc(C)c(-c2ccnc(Nc3ccc(N4CCCC4=O)cc3)n2)s1 [Example 917, 1-[4-({4-[2-(2-methoxyethoxy)-4-methyl-1,3-thiazol-5-yl]pyrimidin-2-yl}amino)phenyl]pyrrolidin-2-one] | 2.23
38 | COCCNc1nc(C)c(-c2ccnc(Nc3ccc4c(c3)C(=O)OC4)n2)s1 [Example 890, 6-[(4-{2-[(2-methoxyethyl)amino]4-methyl-1,3-thiazol-5-yl}pyrimidin-2-yl)amino]-2-benzofuran-1(3H)-one] | 1.53
